Tests used:
morningglory [1] = assay: Test A pre-/postemergence herbicide test; format: in vivo, Ipomoea spp.
Outline: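 Seeds sown in sandy loam received a preemergence directed soil spray of compound in non-phytotoxic solvent with surfactant; postemergence plants (2–10 cm, one- to two-leaf stage) were sprayed to runoff at the same time. After ~10 days in greenhouse, injury was rated visually versus untreated controls (0 = no effect, 100 = complete control).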

rice = assay: Test B pre-/postemergence herbicide test; format: in vivo, Oryza sativa; settings: preemergence
Outline: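 Herbicidal effect was judged by eye on a 0–100 scale after plants stood 13 to 15 days in the greenhouse following pre- or postemergence treatment with surfactant-containing formulations.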

bermudagrass = assay: Test C pre-/postemergence herbicide test; format: in vivo, Cynodon dactylon
Outline: (§1)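 Seeds were planted and sprayed preemergence with test chemicals in a non-phytotoxic solvent mixture containing surfactant; postemergence treatments went onto plants 2 to 18 cm tall (1- to 4-leaf stage). After 12 to 14 days in a greenhouse, injury was rated visually against untreated controls on a 0–100 scale.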

giant foxtail = assay: Test C pre-/postemergence herbicide test; format: in vivo, Setaria faberi; settings: for Foxtail, Giant plant response rating: 500 g ai/ha
Outline: as §1

goosegrass = assay: Test C pre-/postemergence herbicide test; format: in vivo, Eleusine indica; settings: for Goosegrass plant response rating: 500 g ai/ha
Outline: as §1

kochia = assay: Test C pre-/postemergence herbicide test; format: in vivo, Kochia scoparia
Outline: as §1

morningglory [2] = assay: Test C pre-/postemergence herbicide test; format: in vivo, Ipomoea coccinea; design: key to Plant response rating, Morningglory: 0 = no effect, 100 = complete control; settings: for Morningglory plant response rating: 500 g ai/ha
Outline: as §1

soybean = assay: Test C pre-/postemergence herbicide test; format: in vivo, Glycine max; settings: for Soybean plant response rating: 500 g ai/ha
Outline: as §1

[3] = test system: common (oilseed) sunflower; assay: Test C pre-/postemergence herbicide test; format: in vivo, Helianthus annuus
Outline: as §1

[4] = test system: smallflower umbrella sedge; assay: Test C flooded paddy test; format: in vivo, Cyperus difformis
[5] = 125 g ai/ha, scale 0 (no effect) to 100 (complete control), visual, 12 to 14 days, preemergence
[6] = 250 g ai/ha, scale 0 to 100 (0 no effect, 100 complete control), visual, 12 to 14 days, preemergence
[7] = Postemergence, 250 g ai/ha, scale 0 to 100, 0 no effect, 100 complete control
[8] = Preemergence, 500 g ai/ha, scale 0 to 100, 0 no effect, 100 complete control
[9] = Preemergence, scale 0 to 100, 0 no effect, 100 complete control
[10] = postemergence, 125 g ai/ha, scale 0 to 100
[11] = postemergence, 62 g ai/ha, scale 0 to 100

CCn1nc(C(C)(C)C)cc1C(=O)Nc1cccc(C(=O)NC2CC2)n1 [Compound 146]
80: Foxtail, Giant plant response rating (giant foxtail; [9]) | Soybean plant response rating (soybean; Postemergence, scale 0 to 100) | Sedge, Umbrella plant response rating ([4]; 125 g ai/ha, scale 0 to 100 (0 no effect, 100 complete control))
90: Bermudagrass plant response rating (bermudagrass; [8]) | Sedge, Umbrella plant response rating ([4]; 250 g ai/ha, scale of 0 to 100, 0 is no effect, 100 is complete control) | Plant response rating, Sedge, Umbrella ([4]; 500 g ai/ha, visual rating after 12 to 14 days, scale 0 to 100 (0 no effect, 100 complete control))
70: Plant response rating, Bermudagrass (bermudagrass; [6])
50: Morningglory plant response rating (morningglory [1]; Preemergence, 2000 g ai/ha, visual rating, 0 to 100 scale (0 no effect, 100 complete control)) | Plant response rating (0 = no effect, 100 = complete control), Kochia (kochia; 62 g ai/ha, preemergence) | Plant response rating, Kochia (kochia; [5]) | Morningglory plant response rating (morningglory [2]; [9])
10: Plant response rating, Rice (rice; 125 g ai/ha, 0 to 100 scale, 0 is no effect, 100 is complete control) | Plant response rating (0 = no effect, 100 = complete control), Bermudagrass (bermudagrass; 62 g ai/ha, preemergence) | Plant response rating, Foxtail, Giant (giant foxtail; [5]) | Foxtail, Giant plant response rating (giant foxtail; Postemergence, scale 0 to 100)
40: Plant response rating, Rice (rice; 500 g ai/ha, visual rating 0-100, 0 no effect, 100 complete control)
5: Morningglory plant response rating (morningglory [1]; Postemergence, 500 g ai/ha, 0 to 100 scale, 0 no effect, 100 complete control) | Morningglory plant response rating (morningglory [1]; Preemergence, 500 g ai/ha, visual rating, 0 to 100 scale (0 no effect, 100 complete control)) | Plant response rating, Kochia (kochia; [11]) | Plant response rating, Morningglory (morningglory [2]; [5])
30: Plant response rating, Soybean (soybean; [7])
60: Plant response rating, Bermudagrass (bermudagrass; [5]) | Plant response rating, Foxtail, Giant (giant foxtail; [6]) | Goosegrass plant response rating (goosegrass; [9]) | Sedge, Umbrella plant response rating ([4]; 62 g ai/ha, scale 0 to 100 (0 no effect, 100 complete control))
0: Plant response rating, Morningglory (morningglory [1]; Postemergence, 2000 g ai/ha, 0 to 100 scale, 0 no effect, 100 complete control) | Plant response rating, Bermudagrass (bermudagrass; [7]) | Plant response rating (0 = no effect, 100 = complete control), Foxtail, Giant (giant foxtail; 62 g ai/ha, preemergence) | Plant response rating, Foxtail, Giant (giant foxtail; [7]) | Plant response rating, Foxtail, Giant (giant foxtail; [10]) | Plant response rating, Foxtail, Giant (giant foxtail; [11]) | Plant response rating (0 = no effect, 100 = complete control), Goosegrass (goosegrass; 62 g ai/ha, preemergence) | Plant response rating, Goosegrass (goosegrass; [5]) | Goosegrass plant response rating (goosegrass; Postemergence, scale 0 to 100) | Plant response rating, Goosegrass (goosegrass; [7]) | Plant response rating, Goosegrass (goosegrass; [10]) | Plant response rating, Goosegrass (goosegrass; [11]) | Plant response rating (0 = no effect, 100 = complete control), Morningglory (morningglory [2]; 62 g ai/ha, preemergence) | Morningglory plant response rating (morningglory [2]; Postemergence, scale 0 to 100) | Plant response rating, Morningglory (morningglory [2]; [7]) | Plant response rating, Morningglory (morningglory [2]; [10]) | Plant response rating, Morningglory (morningglory [2]; [11]) | Plant response rating (0 = no effect, 100 = complete control), Soybean (soybean; 62 g ai/ha, preemergence) | Plant response rating, Soybean (soybean; [5]) | Soybean plant response rating (soybean; [9]) | Plant response rating (0 = no effect, 100 = complete control), Sunflower ([3]; 62 g ai/ha, preemergence) | Plant response rating, Sunflower [3, 5] | Sunflower plant response rating [3, 8]
100: Kochia plant response rating (kochia; [8])
20: Plant response rating, Kochia (kochia; [7]) | Plant response rating, Soybean (soybean; [10]) | Plant response rating, Soybean (soybean; [11])

Reference: patent US20060069132A1, “Azolecarboxamide herbicides” (priority 2004, published 2006)
